Data taken from ChEMBL document CHEMBL4680249, “Discovery of new LXRβ agonists as glioblastoma inhibitors” (Eur J Med Chem, 2020).
pEC50, pIC50: −log10 of the molar value. Activity calls are given as the source filed them. No cut-off for these calls is given here.

Experiments:
[1] = tested on: U-87 MG; test: Antiproliferative activity against human U87 cells overexpressing EGFR variant III measured after 7 days by CCK8 assay; format: functional, cell-based, U-87MG ATCC; details: for IC50: u-87mg atcc; for pIC50: Homo sapiens, U-87 MG, 168 h, read-out: IC50
[2] = Effect on serum triglyceride level in Balb/c nu/nu mouse xenografted with human U87 cells overexpressing EGFR variant III at 50 mg/kg/day, ip for 15 days; format: ADME, organism-based; details: in vivo, 360 h, time 15 day
[3] = AUC (0 to infinity) in Sprague-Dawley rat at 10 mg/kg, iv measured after 24 hrs by LC-MS/MS analysis; format: ADME, organism-based; design: route intravenous, dose 10 mg/kg, time 24 hrs; details: in vivo
[4] = tested on: U-87 MG; test: Antitumor activity against human U87 cells overexpressing EGFR variant III xenografted in Balb/c nu/nu mouse assessed as reduction in tumor size at 50 mg/kg/day, ip for 15 days by caliper method; format: functional, organism-based; details: U-87MG ATCC, time 15.0 day
[5] = Cmax in Sprague-Dawley rat at 10 mg/kg, iv measured after 24 hrs by LC-MS/MS analysis; format: ADME, organism-based; design: route intravenous, time 24 hrs, dose 10 mg/kg; details: in vivo
[6] = Toxicity in Balb/c nu/nu mouse xenografted with human U87 cells overexpressing EGFR variant III assessed as body weight loss at 50 mg/kg/day, ip for 15 days; format: organism-based; details: in vivo, 360 h, time 15 day
[7] = Half life in Sprague-Dawley rat at 10 mg/kg, iv measured after 24 hrs by LC-MS/MS analysis; format: ADME, organism-based; details: in vivo
[8] = MRT (infinity) in Sprague-Dawley rat at 10 mg/kg, iv measured after 24 hrs by LC-MS/MS analysis; format: ADME, organism-based; details: in vivo
[9] = AUC (0 to t) in Sprague-Dawley rat at 10 mg/kg, iv measured after 24 hrs by LC-MS/MS analysis; format: ADME, organism-based; design: route intravenous, time 24 hrs, dose 10 mg/kg; details: in vivo
[10] = Tmax in Sprague-Dawley rat at 10 mg/kg, iv measured after 24 hrs by LC-MS/MS analysis; format: ADME, organism-based; details: in vivo
[11] = tested on: U-251; test: Antiproliferative activity against human U-251 cells measured after 7 days by CCK8 assay; details: U-251, 168 h
[12] = tested on: U87; test: Agonist activity at LXR in human U87 cells overexpressing EGFR variant III assessed as up regulation of ABCG1 mRNA expression measured after 48 hrs by SYBR green staining based qRT-PCR analysis; format: cell-based; details: filed as agonist
[13] = tested on: HEK-293T; test: Cytotoxicity against HEK293T cells measured after 7 days by CCK8 assay; format: cell-based; details: human, 168 h, time 7 day
[14] = tested on: U87; test: Agonist activity at LXR in human U87 cells overexpressing EGFR variant III assessed as up regulation of SREBP1c mRNA expression measured after 48 hrs by SYBR green staining based qRT-PCR analysis; format: cell-based; details: filed as agonist
[15] = tested on: U87; test: Agonist activity at LXR in human U87 cells overexpressing EGFR variant III assessed as up regulation of APOE mRNA expression measured after 48 hrs by SYBR green staining based qRT-PCR analysis; format: cell-based; details: filed as agonist
[16] = Cytotoxicity against human HA1800 cells measured after 7 days by CCK8 assay; format: cell-based; details: ha1800, 168 h, time 7 day
[17] = tested on: U-87 MG; test: Antiproliferative activity against LXRbeta knock-down human U87 cells overexpressing EGFR variant III measured after 7 days by CCK8 assay; format: functional, cell-based; details: U-87MG ATCC, time 7.0 day
[18] = tested on: U87; test: Agonist activity at LXR in human U87 cells overexpressing EGFR variant III assessed as up regulation of ABCA1 mRNA expression measured after 48 hrs by SYBR green staining based qRT-PCR analysis; format: cell-based; details: filed as agonist
[19] = tested on: A 172; test: Antiproliferative activity against human A 172 cells measured after 7 days by CCK8 assay; details: A 172, 168 h
[20] = tested on: U87; test: Agonist activity at LXR in human U87 cells overexpressing EGFR variant III assessed as up regulation of IDOL mRNA expression measured after 48 hrs by SYBR green staining based qRT-PCR analysis; format: cell-based; details: filed as agonist
[21] = target: Retinoic acid receptor RXR-alpha/oxysterols receptor LXR-alpha (Homo sapiens, UniProt Q13133)
Description: Agonist activity at human RXRalpha/LXRalpha expressed in HEK293 cells measured after 20 hrs by dual luciferase reporter gene assay

[22] = target: Retinoic acid receptor RXR-alpha/oxysterols receptor LXR-beta (Homo sapiens, UniProt P55055)
Chain of Retinoic acid receptor RXR-alpha/oxysterols receptor LXR-beta (P19793 whole entry): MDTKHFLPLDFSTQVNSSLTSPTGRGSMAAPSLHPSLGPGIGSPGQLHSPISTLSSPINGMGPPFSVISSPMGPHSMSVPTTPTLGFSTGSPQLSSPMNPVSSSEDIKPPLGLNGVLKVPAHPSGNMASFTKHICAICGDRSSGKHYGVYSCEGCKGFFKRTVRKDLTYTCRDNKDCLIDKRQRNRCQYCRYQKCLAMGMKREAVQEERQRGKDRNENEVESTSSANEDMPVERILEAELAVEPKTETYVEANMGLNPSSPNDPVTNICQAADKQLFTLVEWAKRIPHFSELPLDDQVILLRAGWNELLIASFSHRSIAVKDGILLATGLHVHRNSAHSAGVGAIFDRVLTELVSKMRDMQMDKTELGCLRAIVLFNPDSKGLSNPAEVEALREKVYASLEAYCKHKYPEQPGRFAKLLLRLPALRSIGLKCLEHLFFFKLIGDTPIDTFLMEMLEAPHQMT
Chain of Retinoic acid receptor RXR-alpha/oxysterols receptor LXR-beta (P55055 whole entry): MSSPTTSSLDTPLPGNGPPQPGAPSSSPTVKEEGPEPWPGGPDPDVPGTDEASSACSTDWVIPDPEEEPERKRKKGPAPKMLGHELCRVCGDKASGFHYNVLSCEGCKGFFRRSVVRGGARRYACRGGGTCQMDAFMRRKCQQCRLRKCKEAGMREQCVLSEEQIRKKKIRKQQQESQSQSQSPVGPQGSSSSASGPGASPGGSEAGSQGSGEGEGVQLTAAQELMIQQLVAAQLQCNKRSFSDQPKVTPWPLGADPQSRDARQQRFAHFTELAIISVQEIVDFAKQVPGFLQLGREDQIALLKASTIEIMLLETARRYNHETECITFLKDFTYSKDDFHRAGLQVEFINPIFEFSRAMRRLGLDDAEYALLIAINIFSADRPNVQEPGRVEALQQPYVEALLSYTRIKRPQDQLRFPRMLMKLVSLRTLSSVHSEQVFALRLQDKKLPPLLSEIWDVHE
Description: Agonist activity at human RXRalpha/LXRbeta expressed in HEK293 cells measured after 20 hrs by dual luciferase reporter gene assay

Chain of Retinoic acid receptor RXR-alpha/oxysterols receptor LXR-alpha (P19793 whole entry): as the sequence (P19793 whole entry) above
Chain of Retinoic acid receptor RXR-alpha/oxysterols receptor LXR-alpha (Q13133 whole entry): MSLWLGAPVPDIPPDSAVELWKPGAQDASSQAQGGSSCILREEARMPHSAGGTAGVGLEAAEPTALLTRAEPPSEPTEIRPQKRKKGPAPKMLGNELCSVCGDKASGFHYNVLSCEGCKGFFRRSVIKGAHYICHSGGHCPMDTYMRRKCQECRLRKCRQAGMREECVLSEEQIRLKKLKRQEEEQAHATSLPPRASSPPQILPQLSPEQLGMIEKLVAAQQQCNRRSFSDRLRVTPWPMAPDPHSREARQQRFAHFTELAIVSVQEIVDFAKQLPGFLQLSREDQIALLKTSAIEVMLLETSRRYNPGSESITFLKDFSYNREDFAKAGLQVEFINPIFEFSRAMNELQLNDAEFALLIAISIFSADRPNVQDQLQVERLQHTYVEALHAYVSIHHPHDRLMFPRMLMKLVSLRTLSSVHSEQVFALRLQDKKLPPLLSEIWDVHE

CC(C)(C)OC(=O)N1CC[C@]2(C(=O)Nc3ccccc32)[C@H]1c1cccc(-c2ccc(CO)cc2)c1
IC50 [1]: Not Active

CN(C)C(=O)c1ccc(-c2cccc([C@H]3N(C(=O)OC(C)(C)C)CC[C@]34C(=O)Nc3ccccc34)c2)cc1Cl
IC50 [1]: Not Active

CC(C)(C)OC(=O)N1CCC2(C(=O)Nc3ccccc32)C1c1cccc(Nc2ccc(CO)c(S(C)(=O)=O)c2)c1 (racemic)
Activity [2]: Non-Toxic
AUC(0-inf) [3]: 1410 ng·h/mL
Activity [4]: Active
Cmax [5]: 1010 ng/mL
Activity [6]: Non-Toxic
half-life [7]: 2.98 h
MRT inf [8]: 3.48 h
pIC50 [1]: 5.43
AUC(0-t) at 24 h [9]: 1250 ng·h/mL
Tmax [10]: 0.22 h

CC(C)(C)OC(=O)N1CC[C@]2(C(=O)Nc3ccccc32)[C@H]1c1cccc(Nc2ccc(CO)c(S(C)(=O)=O)c2)c1
pIC50 [11]: 5.65
Activity [12]: Dose-dependent effect
Activity [13]: Non-Toxic
Activity [14]: Dose-dependent effect
Activity [15]: Dose-dependent effect
Activity [16]: Non-Toxic
Activity [17]: inactive
Activity [18]: Dose-dependent effect
pIC50 [1]: 5.75
pIC50 [19]: 5.22
Activity [20]: Dose-dependent effect

CC(C)(C)OC(=O)N1CC[C@@]2(C(=O)Nc3ccccc32)[C@@H]1c1cccc(Nc2ccc(CO)c(S(C)(=O)=O)c2)c1
IC50 [1]: Not Active

CC(C)(C)OC(=O)N1CCC2(C(=O)Nc3ccccc32)C1c1cccc(-c2ccccc2)c1 (centres undefined)
pIC50 [1]: 4.65

CC(C)(C)CC(=O)N1CC[C@@]2(C(=O)Nc3ccccc32)[C@@H]1c1cccc(-c2ccc(CO)c(S(C)(=O)=O)c2)c1
IC50 [1]: Not Active

CC(C)(C)CC(=O)N1CC[C@]2(C(=O)Nc3ccccc32)[C@H]1c1cccc(-c2ccc(CO)c(S(C)(=O)=O)c2)c1
IC50 [1]: Not Active

Fc1ccc(-c2c3cccc(C(F)(F)F)c3nn2Cc2ccc(F)cc2Cl)cc1 [LXR-623]
pIC50 [11]: 5.51
Activity [2]: Toxic
pEC50 [21]: 9.37
pEC50 [22]: 9.67
pIC50 [1]: 5.21
pIC50 [19]: 5.08

CC(C)(C)OC(=O)N1CCC2(C(=O)Nc3ccccc32)C1c1cccc(-c2cc(F)c(CO)c(S(C)(=O)=O)c2)c1 (centres undefined)
pIC50 [1]: 5.07

CC(C)(C)CC(=O)N1CCC2(C(=O)Nc3ccccc32)C1c1cccc(-c2ccc(CO)c(S(C)(=O)=O)c2)c1 (centres undefined)
IC50 [1]: Not Active

O=C(O)Cc1cccc(OCCCN(Cc2cccc(C(F)(F)F)c2Cl)CC(c2ccccc2)c2ccccc2)c1
Activity [2]: Toxic
pEC50 [21]: 9.40
pEC50 [22]: 9.64
pIC50 [1]: 5.44

COC(=O)c1ccc(-c2cccc([C@@H]3N(C(=O)OC(C)(C)C)CC[C@@]34C(=O)Nc3ccccc34)c2)cc1S(C)(=O)=O
IC50 [1]: Not Active

COC(=O)c1ccc(-c2cccc([C@H]3N(C(=O)OC(C)(C)C)CC[C@]34C(=O)Nc3ccccc34)c2)cc1S(C)(=O)=O
pIC50 [1]: 5.12

CC(C)(C)OC(=O)N1CC[C@]2(C(=O)Nc3ccccc32)[C@H]1c1cccc(-c2cc(F)c(CO)c(S(C)(=O)=O)c2)c1
pIC50 [1]: 5.11

CC(C)(C)OC(=O)N1CC[C@]2(C(=O)Nc3ccccc32)[C@H]1c1cccc(-c2ccc(CO)c(S(C)(=O)=O)c2)c1
pIC50 [1]: 5.20

CC(C)(C)OC(=O)N1CCC2(C(=O)Nc3ccccc32)C1c1cccc(-c2ccc(CO)c(S(C)(=O)=O)c2)c1 (centres undefined)
pIC50 [1]: 5.15

CC(C)(C)OC(=O)N1CC[C@]2(C(=O)Nc3ccccc32)[C@H]1c1cccc(-c2cccc(S(C)(=O)=O)c2)c1
IC50 [1]: Not Active

CC(C)(C)OC(=O)N1CC[C@@]2(C(=O)Nc3ccccc32)[C@@H]1c1cccc(-c2cc(F)c(CO)c(S(C)(=O)=O)c2)c1
IC50 [1]: Not Active

COC(=O)c1ccc(-c2cccc(C3N(C(=O)OC(C)(C)C)CCC34C(=O)Nc3ccccc34)c2)cc1S(C)(=O)=O (centres undefined)
pIC50 [1]: 4.88

CC(C)(C)OC(=O)N1CC[C@@]2(C(=O)Nc3ccccc32)[C@@H]1c1cccc(-c2ccccc2)c1
IC50 [1]: Not Active

CC(C)(C)OC(=O)N1CC[C@@]2(C(=O)Nc3ccccc32)[C@@H]1c1cccc(-c2ccc(CO)c(S(C)(=O)=O)c2)c1
IC50 [1]: Not Active
